In PMC7470115, “Design, synthesis and biological evaluation of novel tetrahydrothieno [2,3-c]pyridine substitued benzoyl thiourea derivatives as PAK1 inhibitors in triple negative breast cancer” (Journal of Enzyme Inhibition and Medicinal Chemistry, 2020):
Read-outs that look alike come from different tables or passages of the source.

What was measured:
MAPK-JNK pathway = assay: Western blot of MAPK-JNK pathway in MDA-MB-231 cells; type: cell-based; details: 2.5, 5, 10 µM, 48 h western blot
Procedure: (§1) Cells were treated with 7j for indicated times. Both adherent and floating cells were collected. Western blot analysis was carried out. Briefly, the cell pellets were resuspended with lysis buffer consisting of Hepes 50 mM pH 7.4, Triton-X-100 1%, sodium orthovanada 2 mM, sodium fluoride 100 mM, edetic acid 1 mM, PMSF 1 mM, aprotinin (Sigma, MO, USA) 10 mg/L and leupeptin (Sigma) 10 mg/L and lysed at 4 °C for 1 h. After 12,000 rpm centrifugation for 15 min, the protein content of supernatant was determined by the Bio- Rad DC protein assay (Bio-Rad Laboratories, Hercules, CA, USA). Equal amounts of the total protein were separated by 10–15% SDS-PAGE and transferred to PVDF membranes, the membranes were soaked in blocking buffer (5% skimmed milk or BSA). Proteins were detected using primary antibodies, followed by HRP-conjugated secondary antibody and visualised by using ECL as the HRP substrate. Quantification of immunoblot was performed by Quantity One 4.4.

MDA-MB-231 cells [1] = assay: Colony formation assay; type: cell-based
PAK1 [2] = target: T1, PAK1 (Homo sapiens, UniProt Q13153); assay: Western blot of PAK1 and p-PAK1 Ser199 in MDA-MB-231 cells; type: cell-based; details: 48 h
Procedure: (§2) MDA-MB-231 were purchased from American Type Culture Collection (ATCC, Manassas, VA, USA). Cells were cultured in DMEM with 10% foetal bovine serum and incubated with 5% CO2. Antibodies used in this study were as follows: cdc25c (4688, CST), pcdc2^Tyr[15] (4539, CST), cyclinB1 (4135, CST), PAK1 (ab223849, CST), p-PAK1^Ser199 (ab192814, abcam), JNK (9252, CST), p-JNK (9255, CST), c-Jun (9165, CST), p-c-Jun (3270, CST), p-c-Raf^Ser259(9421, CST), p-MEK ^Ser217/221 (9154, CST), p-ERK ^Thr202/Tyr204 (9101, CST), β-actin (3700, CST). MTT (M2128) was purchased from Sigma- Aldrich (St. Louis, MO, USA).
as §1

MDA-MB-231 cells [3] = assay: Cell cycle assay (PI staining, flow cytometry); type: cell-based; details: 2.5, 5, 10 μM, 48 h
Procedure: For cell cycle detection, MDA-MB-231 cells were treated with 2.5, 5, 10 μM 7j for 48 h and then ethyl alcohol-fixed at 4 °C for 24 h. Then the cell cycle distribution were determined by flow cytometry analysis of PI staining.

MAPK-ERK pathway = assay: Immunofluorescence and western blot of MAPK-ERK pathway in MDA-MB-231 cells; type: cell-based
Procedure: (§3) For immunofluorescence staining, non-specific antibody binding was blocked by incubating with PBS containing 1.5% goat serum. The MDA-MB-231 cells were sequentially incubated, starting with p-cdc2^Tyr[15] antibody (1:200), p-ERK1/2 ^Thr202/Tyr204 antibody (1:200) diluted in PBS containing 1% BSA incubated overnight at 4 °C, followed by addition of fluorescent-labelled secondary antibodies for 1 h at room temperature.
as §1

PAK1 [4] = target: T1, PAK1; assay: Cellular thermal shift assay (CETSA); type: cell-based; details: 10 μM, 24 h; 48, 52, 56 °C
Procedure: The ability of 7j to interact with and stabilise PAK1 protein in intact cells, was analysed as described before. Briefly, cells cultured in 100 × 20 mm tissue culture dishes at 90% confluence were treated with media containing DMSO or 7j (10 μM) for 24 h. After that cells were detached with trypsin and re-suspended in PBS. The cell suspension was heated for 3 min to 48, 52, and 56 °C. Subsequently, cells were lysed using liquid nitrogen and two repeated cycles of freeze-thaw. Precipitated proteins were separated from the soluble fraction by centrifugation at 17,000 g for 20 min. Soluble proteins, collected in the supernatant, were kept at −80 °C until Western blot analysis.

cdc25c/cdc2 pathway = assay: Immunofluorescence and western blot of cdc25c/cdc2 pathway in MDA-MB-231 cells; type: cell-based
Procedure: as §3, §1
Cells were transfected with PAK1 (6361, CST) and negative control (6568, CST) siRNAs at 100 nM final concentration using Lipofectamine RNAiMAX/Lip3000 reagent (Invitrogen) according to the manufacturer’s instructions. The transfected cells were used for subsequent experiments 48 h later.

MDA-MB-231 cells [5] = assay: Cell viability assay (MTT); type: cell-based; details: MTT
Procedure: as §2
Cells were dispensed in 96-well plates at a density of 5 × 10^4 cells/ml. After 24 h or 48 h incubation, cells were treated with different concentrations of compounds for the indicated time periods. Cell viability was measured by the MTT assay.

PAK1 [6] = target: T1, PAK1; assay: PAK1 enzymatic assay (Kinase-Glo Plus / ADP-Glo luminescence); type: biochemical
Procedure: These assays were carried out as described previously. All of the enzymatic reactions were conducted at 30 °C for 40 min. The 50 µl reaction mixture contains 40 mM Tris, pH 7.4, 10 mM MgCl2, 0.1 mg/ml BSA, 1 mM DTT, 50 µM ATP, 0.2 μg/ml PAK1 and 100 uM lipid substrate. The compounds were diluted in 10% DMSO and 5 µl of the dilution was added to a 50 µl reaction so that the final concentration of DMSO is 1% in all of the reactions. The assay was performed using the Kinase-Glo Plus luminescence kinase assay kit and ADP-Glo Plus luminescence kinase assay kit. It measures kinase activity by quantitating the amount of ATP remaining in solution following a kinase reaction. The luminescent signal from the assay is correlated with the amount of ATP present and is inversely correlated with the amount of kinase activity. The IC50 values were calculated using nonlinear regression with normalised dose − response fit using Prism GraphPad software.

[7] = 2.5, 5, 10 µM, 48 h western blot

T1 sequence (Q13153 whole entry): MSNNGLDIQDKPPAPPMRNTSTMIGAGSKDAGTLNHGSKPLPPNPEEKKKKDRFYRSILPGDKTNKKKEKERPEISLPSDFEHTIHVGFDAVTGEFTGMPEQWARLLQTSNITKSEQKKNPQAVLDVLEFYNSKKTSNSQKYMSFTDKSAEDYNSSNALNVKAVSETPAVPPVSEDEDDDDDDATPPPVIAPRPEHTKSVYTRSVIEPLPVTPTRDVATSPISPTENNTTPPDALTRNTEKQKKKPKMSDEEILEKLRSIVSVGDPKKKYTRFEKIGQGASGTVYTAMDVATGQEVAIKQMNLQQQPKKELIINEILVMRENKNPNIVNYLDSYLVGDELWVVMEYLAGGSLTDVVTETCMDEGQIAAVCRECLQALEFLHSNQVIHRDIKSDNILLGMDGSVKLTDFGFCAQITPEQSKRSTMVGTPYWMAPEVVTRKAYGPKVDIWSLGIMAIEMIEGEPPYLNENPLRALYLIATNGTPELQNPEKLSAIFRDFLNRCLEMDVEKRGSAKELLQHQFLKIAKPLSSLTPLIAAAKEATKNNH

PAK1 expression (western blot) (PAK1 [2]; larger dose 10 μM): suppressed PAK1 expression | PAK1 expression (western blot) (PAK1 [2]; smaller dose 2.5 μM and 5 μM): did not affect PAK1 expression | Thermal stabilisation of PAK1 (CETSA) (PAK1 [4]): could stabilise PAK1 | IC50 (MDA-MB-231 cells [5]; Homo sapiens, MDA-MB-231, 24 h, 24 h, read-out: MDA-MB-231 cell viability IC50, 24 h): 7.37 µM | IC50 (MDA-MB-231 cells [5]; Homo sapiens, MDA-MB-231, 48 h, 48 h, read-out: MDA-MB-231 cell proliferation IC50, 48 h): 4.67 µM | IC50 (MDA-MB-231 cells [5]; 48 h, read-out: MDA-MB-231 cell proliferation IC50, 48 h): 4.67 µM | Fold less PAK1 inhibitory activity in comparison to the standard FRAX597 (PAK1 [6]; 7j versus FRAX597): over 10 fold | IC50 (PAK1 [6]; tested in triplicate, mean ± SD, 50 µM ATP, read-out: Kinase inhibitory activity (IC50, μM) PAK1): 0.21 ± 0.05 µM | IC50 (PAK1 [6]; value given in nM in the text, read-out: PAK1 IC50): 0.209 µM
SMILES: NC(=O)c1c(NC(=S)NC(=O)c2cccc(C(F)(F)F)c2)sc2c1CCN(C(=O)C1CC1)C2 [Compound 7j, 6-(cyclopropanecarbonyl)-2–(3-(3-(trifluoromethyl)benzoyl)thioureido)-4,5,6,7-tetrahydrothieno[2,3-c]pyridine-3-carboxamide]
JNK and c-Jun phosphorylation (MAPK-JNK pathway): decrease of JNK and c-Jun phosphorylation | Proliferation and colony formation ability of MDA-MB-231 cells (MDA-MB-231 cells [1]): obviously inhibited | Phosphorylation of PAK1 at Ser199 (PAK1 [2]; 2.5, 5, 10 μM): inhibited the phosphorylation of PAK1 at Ser199 | Cell cycle arrest (MDA-MB-231 cells [3]): induced obviously G2/M cell cycle arrest | p-ERK1/2 Thr202/Tyr204 expression and nucleus distribution (MAPK-ERK pathway; 5 µM, 48 h immunofluorescence): inhibited its expression and nucleus distribution | Phosphorylation of p-c-Raf, p-MEK1/2 and p-ERK1/2 (MAPK-ERK pathway; [7]): suppressed MAPK-ERK pathway | p-cdc2 Tyr15 expression (cdc25c/cdc2 pathway; 5 µM, 48 h immunofluorescence): obviously increased | Expression of cdc25c, cyclinB1, Pin1 and NEDD8 (cdc25c/cdc2 pathway; [7]): could decrease the expression | Phosphorylation of p-cdc2 at Tyr15 after PAK1 knockdown (cdc25c/cdc2 pathway; si-PAK1, 5 μM, 48 h): almost did not affect
